Columns and labels:
[1] = system: bovine nucleus pulposus cells; assay: MTS cytotoxicity assay, bovine nucleus pulposus cells; assay type: cell-based; settings: bovine disc cells, 24 hours incubation
Description: (§1) Cytotoxicity testing was carried out on precursor monomers and proteoglycan analogues via the MTS assay using a commercial Kit (MTS assay Cell titre 96® AQueous One Solution Cell Proliferation Assay). Briefly, 5×10^3 cells per well were allowed to adhere to a 96 well plate for 24 hours. The substance under test was added and incubated with the cells for 24 hours before assessment of cell activity with MTS solution. Two cell types were used: (i) L929 mouse fibroblasts (European Collection of Cell Culture: ECACC No 85011425) which are typically used in cytotoxicity tests and (ii) bovine nucleus pulposus cells, prepared by enzymatic digestion of nucleus pulposus from bovine coccygeal discs.
(§2) The individual possible components of proteoglycan analogues were tested, including: NaAMPS, KSPA, acryloyl morpholine (ACMO), glycerol, ascorbic acid, Oxone (potassium oxypersulphate), PEG diacrylate and multifunctional macromer cross-linkers. The proteoglycan analogues are exemplified by those in Tables 1 and 2.

[2] = system: L929 mouse fibroblasts; assay: MTS cytotoxicity assay, L929 cells; assay type: cell-based; settings: 24 hours incubation
Description: as §1, §2

Molecule	toxicity to cells (MTS assay) [1]	toxicity to cells (MTS assay) [2]
O=C1O[C@H]([C@@H](O)CO)C(O)=C1O [ascorbic acid]	not to be toxic	not to be toxic
potassium oxypersulphate [Oxone]	not to be toxic	not to be toxic

— patent US20110118379A1, “INTERVERTEBRAL DISC AND INTRAOCULAR LENS” (priority 2008, published 2011)
